Experimental data: patent publication US11834466B2, “Benzoxaborole compounds and formulations thereof” (5Metis, Inc., priority 2017, dated 2023)

Key:
Assay type in all cases: in vivo
[1] = tested on: wheat/SNB (Parastangaspora nodorum); assay: Greenhouse biological efficacy on wheat/SNB; settings: BAG8 0.25 lb/acre at 20 gal/acre, inoculum 24 hours post spray, Example 26, Table 16, untreated control 6.750
Protocol: (§1) The BAG8 SC formulations described in Example 10 (BAG8 20% SC) and Example 12 (BAG8 40% SC) and selected BAG8 SC-tank mix formulations described in Example 23 were tested under greenhouse conditions. Data was obtained for soybean/white mold (Sclerotinia sclerotiorum), wheat/SNB (Parastangaspora nodorum), and cucubit/downy mildew. For each experiment, the BAG8 was applied at a rate of 0.25 lb/acre and at a spray rate of 20 gal/acre. Various BAG8 EC formulations, the BAG8 WP formulation described in Example 18, and selected BAG8 SC-tank mix formulations described in Example 23 were tested under greenhouse conditions. Data was obtained for soybean/white mold (Sclerotinia sclerotiorum), wheat/SNB (Parastangaspora nodorum), and cucurbit/downy mildew. For each experiment, the BAG8 was applied at a rate of 0.25 lb/acre at a spray rate of 20 gal/acre (40 mL of spray solution prepared). All inoculum was applied 24 hours post BAG8 spray. Unformulated BAG8 was applied to the plants by dissolving BAG8 in a 30% acetone-70% water solution.

[2] = tested on: soybean/white mold (Sclerotinia sclerotiorum); assay: Greenhouse biological efficacy on soybean/white mold; settings: BAG8 0.25 lb/acre at 20 gal/acre, inoculum 24 hours post spray, Example 29, Table 19, untreated control 7.333
Protocol: as §1

cucurbit/downy mildew = assay: Greenhouse biological efficacy on cucurbit/downy mildew; settings: BAG8 0.25 lb/acre at 20 gal/acre, inoculum 24 hours post spray
Protocol: as §1

OB1OCc2cc(Cl)ccc21 [BAG8, 5-chlorobenzo[c][1,2]oxaborol-1(3H)-ol]
Mean Disease Severity [1]: 5.750
Mean Disease Severity [2]: 5.333
Mean Disease Severity (cucurbit/downy mildew; Cucumber/Downy Mildew, Example 29, Table 20, untreated control 7.417): 5.833
Mean Disease Severity (cucurbit/downy mildew; Curcurbit/Downy Mildew, Example 27, Table 17, untreated control 8.364): 2.000
Mean Disease Severity (cucurbit/downy mildew; Curcurbit/Downy Mildew, Example 28, Table 18, untreated control 6.667): 5.833
